Values of other authors in patent US20240423911A1, “EMULSION COMPOSITION” (AstaReal Co., Ltd., priority 2018, published 2024).

Legend:
[1] = Takahashi et al. 2004

**Q.** Which “antioxidative activity relative to vitamin E” value (higher than that of vitamin E) does the source give for `CC1=C(/C=C/C(C)=C/C=C/C(C)=C/C=C/C=C(C)/C=C/C=C(C)/C=C/C2=C(C)C(=O)C(O)CC2(C)C)C(C)(C)CC(O)C1=O` (stereo not drawn) [Astaxanthin, 3,3′-dihydroxy-β,β-carotene-4,4′-dione] here?
**A.** approximately 1000 times

**Q.** What about the “antioxidative activity relative to β-carotene” value (higher than that of β-carotene) of the same compound?
**A.** ~40 times

**Q.** And the mutagenicity [1]?
**A.** no mutagenicity has been observed
